Legend:
[1] = target: T1, human muscarinic acetylcholine M3 receptor (M3-ACh) (Homo sapiens, UniProt P20309); experiment: Muscarinic 3 Receptor Binding Assay, % inhibition specific binding at 1 μM; conditions: 1 μM compound, % inhibition specific [3H]-NMS binding
T1 construct: expressed in transfected cells; host or cells: CHO-K1 (Chinese Hamster Ovary) cell membranes
Procedure: The following experimental procedure was used to determine the M3% inhibition at 1 μM of the compounds of Examples 116-263.
Muscarinic 3 Receptor Binding Assay
The activity (% inhibition specific binding) of compounds -on the M3 receptor is determined by competition binding of [^3H]N-methyl scopolamine (NMS) to CHO-K1 (Chinese Hamster Ovary) cell membranes expressing the human muscarinic acetylcholine M3 receptor (M3-ACh) in a scintillation proximity assay (SPA) format.
SPA beads are precoated with membranes and then incubated at 2 mg of beads per well with 1 μM compound of the invention, [^3H]NMS at 0.1 nM, quarter Kd (experimentally determined dissociation constant) and assay buffer (20 mM HEPES pH 7.4 containing 5 mM MgCl2). The assay is conducted in a final volume of 200 μL, in the presence of 1% (v/v) dimethyl sulphoxide (DMSO). Total binding of [^3H]NMS is determined in the absence of competing compound and non-specific binding of [^3H]NMS is determined in the presence of 1 μM atropine. The plates are incubated for 16 hours at room temperature and then read on Wallac Microbeta™ using a normalised ^3H protocol. The compound activity at 1 defined as % inhibition specific [^3H]-NMS binding, is determined.

[2] = target: T2, Adrenergic β2 (H292 cells) (Homo sapiens, UniProt P07550); experiment: Adrenergic β2 Mediated cAMP Production, single concentration 1 μM; assay type: cell-based; conditions: NCI-H292, 1 μM compound, percentage of the maximum response generated by 1E-07M formoterol, read-out: β2 (% effect at 1 μM)
T2 construct: endogenous in cells; host or cells: H292 cells
Procedure: The following experimental procedure was used to measure the beta-2% effect at 1 μM for the compounds of Examples 116-263. Adrenergic β2 Mediated cAMP Production Cell Preparation
H292 cells are grown in 225 cm2 flasks incubator at 37° C., 5% CO2 in RPMI medium containing 10% (v/v) FBS (foetal bovine serum) and 2 mM L-glutamine.
Compounds were prepared by an initial first dilution into DMSO to give 1 mM stock concentration. This was followed by a 1 in 10 dilution of the stock concentration (10 μl stock compound+90 μl DMSO) to give 0.1 mM compound.
A compound addition plate was prepared by making a further 1 in 25 dilution in assay buffer (HBSS solution containing 10 mM HEPES pH7.4 and 5 mM glucose) containing 4% dimethylsulfoxide. The final compound concentration in assay is 1 μM.
Adherent H292 cells are removed from tissue culture flasks by treatment with Accutase™ cell detachment solution for 15 minutes. Flasks are incubated for 15 minutes in a humidified incubator at 37° C., 5% CO2. Detached cells are re-suspended in RPMI media (containing 10% (v/v) FBS and 2 mM L-glutamine) at 0.1×10^6 cells per mL. 10000 cells in 100 μL are added to each well of a tissue-culture-treated 96-well plate and the cells incubated overnight in a humidified incubator at 37° C., 5% CO2. The culture media is removed and cells are washed twice with 100 μL assay buffer and replaced with 50 μL assay buffer (HBSS solution containing 10 mM HEPES pH7.4 and 5 mM glucose). Cells are rested at room temperature for 20 minutes after which time 25 μL of rolipram (1.2 mM made up in assay buffer) is added. Cells are incubated with rolipram for 10 minutes after which time 25 μl test compounds are added and the cells are incubated for 60 minutes at room temperature. The final rolipram concentration in the assay is 300 μM and final vehicle concentration is 1% (v/v) dimethylsulphoxide. The reaction is stopped by removing supernatants, washing once with 100 μL assay buffer and replacing with 50 μL lysis buffer. The cell monolayer is frozen at −80° C. for 30 minutes (or overnight).
AlphaScreen™ cAMP Detection
The concentration of cAMP (cyclic adenosine monophosphate) in the cell lysate is determined using AlphaScreen™ methodology. The frozen cell plate is thawed for 20 minutes on a plate shaker then 10 μL of the cell lysate is transferred to a 96-well white plate. 40 μL of mixed AlphaScreen™ detection beads (containing equal volumes of donor beads (pre-incubated with biotinylated cAMP in the dark for 30 minutes) and acceptor beads is added to each well and the plate incubated at room temperature for 3 hours in the dark. The AlphaScreen™ signal is measured using an EnVision spectrophotometer (Perkin-Elmer Inc.) with the recommended manufacturer's settings. Concentration of cAMP produced per well were calculated with reference to the cAMP standard curve determined in the same experiment and expressed as a percentage of the maximum response generated by 1E-07M formoterol.

T1 sequence (P20309 whole entry): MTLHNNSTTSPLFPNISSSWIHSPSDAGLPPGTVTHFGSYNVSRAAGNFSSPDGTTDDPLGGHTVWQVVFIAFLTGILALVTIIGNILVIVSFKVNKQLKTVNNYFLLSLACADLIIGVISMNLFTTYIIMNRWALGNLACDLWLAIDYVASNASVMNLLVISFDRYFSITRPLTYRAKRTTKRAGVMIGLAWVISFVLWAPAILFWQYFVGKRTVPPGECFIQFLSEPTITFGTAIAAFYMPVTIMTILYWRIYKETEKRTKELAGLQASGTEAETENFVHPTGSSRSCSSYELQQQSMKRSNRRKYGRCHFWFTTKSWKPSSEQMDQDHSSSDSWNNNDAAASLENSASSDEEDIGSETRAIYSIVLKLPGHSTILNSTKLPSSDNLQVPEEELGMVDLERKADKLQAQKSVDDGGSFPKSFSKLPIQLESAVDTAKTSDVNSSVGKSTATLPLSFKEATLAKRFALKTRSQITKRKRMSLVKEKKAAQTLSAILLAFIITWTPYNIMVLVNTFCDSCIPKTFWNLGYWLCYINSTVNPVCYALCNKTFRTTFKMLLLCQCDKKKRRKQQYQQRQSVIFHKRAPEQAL
T2 sequence (P07550 whole entry): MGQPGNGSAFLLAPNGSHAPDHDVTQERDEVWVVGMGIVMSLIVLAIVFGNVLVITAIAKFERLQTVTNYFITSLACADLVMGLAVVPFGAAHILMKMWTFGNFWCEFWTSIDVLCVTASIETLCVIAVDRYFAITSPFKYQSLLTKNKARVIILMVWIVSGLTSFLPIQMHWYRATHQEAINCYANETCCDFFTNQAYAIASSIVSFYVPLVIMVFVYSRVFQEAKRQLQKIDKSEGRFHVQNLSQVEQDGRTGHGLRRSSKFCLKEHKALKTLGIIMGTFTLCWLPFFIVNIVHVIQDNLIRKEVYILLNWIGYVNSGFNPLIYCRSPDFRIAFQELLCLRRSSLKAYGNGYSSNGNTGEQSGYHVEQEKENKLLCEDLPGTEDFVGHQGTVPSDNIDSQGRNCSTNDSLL

What does the source list for `Cc1cc(C(=O)N2CCOC3(CCN(Cc4cc(F)cc(CCNC[C@H](O)c5ccc(O)c6[nH]c(=O)sc56)c4)CC3)C2)c(C)s1` [Example 150, (R)-7-(2-(3-((4-(2,5-dimethylthiophene-3-carbonyl)-1-oxa-4,9-diazaspiro[5.5]undecan-9-yl)methyl)-5-fluorophenethylamino)-1-hydroxyethyl)-4-hydroxybenzo[d]thiazol-2(3H)-one]?
inhibition at 1 µM [1]: 91%; activation at 1 µM [2]: 100%

Which results are given for `Cc1nonc1C(=O)N1CCOC2(CCN(Cc3cc(F)cc(CCNC[C@H](O)c4ccc(O)c5[nH]c(=O)sc45)c3)CC2)C1` [Example 151, (R)-7-(2-(3-fluoro-5-((4-(4-methyl-1,2,5-oxadiazole-3-carbonyl)-1-oxa-4,9-diazaspiro[5.5]undecan-9-yl)methyl)phenethylamino)-1-hydroxyethyl)-4-hydroxybenzo[d]thiazol-2(3H)-one]?
inhibition at 1 µM [1]: 71%; activation at 1 µM [2]: 98%

For `Cc1nc2ccccn2c1C(=O)N1CCOC2(CCN(Cc3cc(F)cc(CCNC[C@H](O)c4ccc(O)c5[nH]c(=O)sc45)c3)CC2)C1` [Example 152, (R)-7-(2-(3-fluoro-5-((4-(2-methylimidazo[1,2-a]pyridine-3-carbonyl)-1-oxa-4,9-diazaspiro[5.5]undecan-9-yl)methyl)phenethylamino)-1-hydroxyethyl)-4-hydroxybenzo[d]thiazol-2(3H)-one], which inhibition at 1 µM [1] is on record?
Its inhibition at 1 µM is 13%.

And the activation at 1 µM [2]?
The activation at 1 µM was 110%.

For `Cc1ccn(CC(=O)N2CCOC3(CCN(Cc4cc(F)cc(CCNC[C@H](O)c5ccc(O)c6[nH]c(=O)sc56)c4)CC3)C2)n1` [Example 153, (R)-7-(2-(3-fluoro-5-((4-(2-(3-methyl-1H-pyrazol-1-yl)acetyl)-1-oxa-4,9-diazaspiro[5.5]undecan-9-yl)methyl)phenethylamino)-1-hydroxyethyl)-4-hydroxybenzo[d]thiazol-2(3H)-one], which inhibition at 1 µM [1] is on record?
Its inhibition at 1 µM is 67%.

What about the activation at 1 µM [2] of the same compound?
Its activation at 1 µM is 98%.

With `CCOc1ccc(O)c(C(=O)N2CCOC3(CCN(Cc4cc(F)cc(CCNC[C@H](O)c5ccc(O)c6[nH]c(=O)sc56)c4)CC3)C2)c1` [Example 154, (R)-7-(2-(3-((4-(5-ethoxy-2-hydroxybenzoyl)-1-oxa-4,9-diazaspiro[5.5]undecan-9-yl)methyl)-5-fluorophenethylamino)-1-hydroxyethyl)-4-hydroxybenzo[d]thiazol-2(3H)-one] as the compound, how does the inhibition at 1 µM [1] read?
Its inhibition at 1 µM is 28%.

And the activation at 1 µM [2]?
Its activation at 1 µM is 102%.

`O=C(c1cc(-c2ccccc2)n[nH]1)N1CCOC2(CCN(Cc3cc(F)cc(CCNC[C@H](O)c4ccc(O)c5[nH]c(=O)sc45)c3)CC2)C1` [Example 155, (R)-7-(2-(3-fluoro-5-((4-(3-phenyl-1H-pyrazole-5-carbonyl)-1-oxa-4,9-diazaspiro[5.5]undecan-9-yl)methyl)phenethylamino)-1-hydroxyethyl)-4-hydroxybenzo[d]thiazol-2(3H)-one] was tested. Which inhibition at 1 µM [1] did it give?
Its inhibition at 1 µM is 4%.

And the activation at 1 µM [2]?
Its activation at 1 µM is 101%.

For `O=C(c1ccc(-n2ccnc2)cc1)N1CCOC2(CCN(Cc3cc(F)cc(CCNC[C@H](O)c4ccc(O)c5[nH]c(=O)sc45)c3)CC2)C1` [Example 156, (R)-7-(2-(3-((4-(4-(1H-imidazol-1-yl)benzoyl)-1-oxa-4,9-diazaspiro[5.5]undecan-9-yl)methyl)-5-fluorophenethylamino)-1-hydroxyethyl)-4-hydroxybenzo[d]thiazol-2(3H)-one], which inhibition at 1 µM [1] is on record?
The inhibition at 1 µM was 3%.

What about the activation at 1 µM [2] of the same compound?
Its activation at 1 µM is 106%.

How did the inhibition at 1 µM [1] turn out when `Cc1ccc2[nH]c(C(=O)N3CCOC4(CCN(Cc5cc(F)cc(CCNC[C@H](O)c6ccc(O)c7[nH]c(=O)sc67)c5)CC4)C3)cc2c1` [Example 157, (R)-7-(2-(3-fluoro-5-((4-(5-methyl-1H-indole-2-carbonyl)-1-oxa-4,9-diazaspiro[5.5]undecan-9-yl)methyl)phenethylamino)-1-hydroxyethyl)-4-hydroxybenzo[d]thiazol-2(3H)-one] was run?
The inhibition at 1 µM was 13%.

And the activation at 1 µM [2]?
Its activation at 1 µM is 102%.

`O=C([C@@H]1CCCO1)N1CCOC2(CCN(Cc3cc(F)cc(CCNC[C@H](O)c4ccc(O)c5[nH]c(=O)sc45)c3)CC2)C1` [Example 158, 7-((R)-2-(3-fluoro-5-((4-((S)-tetrahydrofuran-2-carbonyl)-1-oxa-4,9-diazaspiro[5.5]undecan-9-yl)methyl)phenethylamino)-1-hydroxyethyl)-4-hydroxybenzo[d]thiazol-2(3H)-one] was tested. Which inhibition at 1 µM [1] did it give?
Its inhibition at 1 µM is 72%.

And the activation at 1 µM [2]?
Its activation at 1 µM is 95%.

Which results are given for `O=C(c1ccc(-c2cnco2)cc1)N1CCOC2(CCN(Cc3cc(F)cc(CCNC[C@H](O)c4ccc(O)c5[nH]c(=O)sc45)c3)CC2)C1` [Example 159, (R)-7-(2-(3-fluoro-5-((4-(4-(oxazol-5-yl)benzoyl)-1-oxa-4,9-diazaspiro[5.5]undecan-9-yl)methyl)phenethylamino)-1-hydroxyethyl)-4-hydroxybenzo[d]thiazol-2(3H)-one]?
inhibition at 1 µM [1]: 3%; activation at 1 µM [2]: 90%

For `O=C(c1ccnn1-c1ccccc1)N1CCOC2(CCN(Cc3cc(F)cc(CCNC[C@H](O)c4ccc(O)c5[nH]c(=O)sc45)c3)CC2)C1` [Example 160, (R)-7-(2-(3-fluoro-5-((4-(1-phenyl-1H-pyrazole-5-carbonyl)-1-oxa-4,9-diazaspiro[5.5]undecan-9-yl)methyl)phenethylamino)-1-hydroxyethyl)-4-hydroxybenzo[d]thiazol-2(3H)-one], which inhibition at 1 µM [1] is on record?
Its inhibition at 1 µM is 5%.

And the activation at 1 µM [2]?
Its activation at 1 µM is 91%.

With `CC1=NNC(=O)C1CCC(=O)N1CCOC2(CCN(Cc3cc(F)cc(CCNC[C@H](O)c4ccc(O)c5[nH]c(=O)sc45)c3)CC2)C1` (stereo partly drawn) [Example 161, 7-((1R)-2-(3-fluoro-5-((4-(3-(3-methyl-5-oxo-4,5-dihydro-1H-pyrazol-4-yl)propanoyl)-1-oxa-4,9-diazaspiro[5.5]undecan-9-yl)methyl)phenethylamino)-1-hydroxyethyl)-4-hydroxybenzo[d]thiazol-2(3H)-one] as the compound, how does the inhibition at 1 µM [1] read?
Its inhibition at 1 µM is 42%.

What about the activation at 1 µM [2] of the same compound?
The activation at 1 µM was 87%.

With `Cc1nc2cc(C(=O)N3CCOC4(CCN(Cc5cc(F)cc(CCNC[C@H](O)c6ccc(O)c7[nH]c(=O)sc67)c5)CC4)C3)ccc2n1C` [Example 162, (R)-7-(2-(3-((4-(1,2-dimethyl-1H-benzo[d]imidazole-5-carbonyl)-1-oxa-4,9-diazaspiro[5.5]undecan-9-yl)methyl)-5-fluorophenethylamino)-1-hydroxyethyl)-4-hydroxybenzo[d]thiazol-2(3H)-one] as the compound, how does the inhibition at 1 µM [1] read?
The inhibition at 1 µM was 8%.

What about the activation at 1 µM [2] of the same compound?
The activation at 1 µM was 91%.

For `Cc1nonc1CC(=O)N1CCOC2(CCN(Cc3cc(F)cc(CCNC[C@H](O)c4ccc(O)c5[nH]c(=O)sc45)c3)CC2)C1` [Example 163, (R)-7-(2-(3-fluoro-5-((4-(2-(4-methyl-1,2,5-oxadiazol-3-yl)acetyl)-1-oxa-4,9-diazaspiro[5.5]undecan-9-yl)methyl)phenethylamino)-1-hydroxyethyl)-4-hydroxybenzo[d]thiazol-2(3H)-one], which inhibition at 1 µM [1] is on record?
The inhibition at 1 µM was 25%.

And the activation at 1 µM [2]?
Its activation at 1 µM is 95%.

How did the inhibition at 1 µM [1] turn out when `O=C(CCn1cncn1)N1CCOC2(CCN(Cc3cc(F)cc(CCNC[C@H](O)c4ccc(O)c5[nH]c(=O)sc45)c3)CC2)C1` [Example 164, (R)-7-(2-(3-((4-(3-(1H-1,2,4-triazol-1-yl)propanoyl)-1-oxa-4,9-diazaspiro[5.5]undecan-9-yl)methyl)-5-fluorophenethylamino)-1-hydroxyethyl)-4-hydroxybenzo[d]thiazol-2(3H)-one] was run?
Its inhibition at 1 µM is 35%.

What about the activation at 1 µM [2] of the same compound?
The activation at 1 µM was 99%.
